In paper PMC5389473, “DNA polymerase β contains a functional nuclear localization signal at its N-terminus” (Nucleic Acids Research, 2016):
Peptide text beside a SMILES is read from it. * marks the point of attachment. FITC = O=C1OC2(c3ccc(O)cc3Oc3cc(O)ccc32)c2ccc(NC(=S)*)cc21

Assays:
mImpα1ΔIBB [1] = test: Gel filtration of lyase domain / mImpα1ΔIBB mixture; type: binding, murine; settings: 2.8-fold excess lyase domain, HiLoad 26/60 Superdex 200, 20 mM Tris-HCl pH 7.8, 125 mM NaCl, 2 mM DTT, 1 mM EDTA
Procedure: (§1) For an initial assessment of binding, a sample of mImpα1ΔIBB was mixed with a 2.8-fold excess of pol β lyase domain and the sample was eluted on a HiLoad 26/60 Superdex 200 column (GE Healthcare) with a buffer containing 20 mM Tris-HCl, pH 7.8, 125 mM NaCl, 2 mM DTT, 1 mM ethylenediaminetetraacetic acid. For the analytical gel filtration experiments, hImpα5ΔIBB was mixed with 2-fold excess of wild-type or the NLS variant pol β(R4S,K5S) lyase domain and the samples were eluted on a Superdex 200 10/300 GL column (GE Healthcare) with a buffer containing 20 mM HEPES, 125 mM NaCl, 5mM DTT, 1mM ethylenediaminetetraacetic acid, pH 7.4.
Supplementary Figure S2. Interaction of pol β lyase domain with mImpα1DIBB. A sample of mImpα1DIBB was mixed with 2.8-fold excess of pol b lyase domain and the sample was eluted on a HiLoad 26/60 Superdex 200 column (GE Healthcare) with a buffer containing 20 mM Tris-HCL, pH 7.8, […]
125 mM NaCl, 2 mM DTT, 1 mM EDTA. […]
which contain both proteins while the excess pol b lyase domain elutes in fractions 41-43.
(1 picture or pasted object on this page, not shown here)

mImpα1ΔIBB [2] = test: 1H-15N HSQC NMR binding study; set-up: species or system murine; settings: 130 μM protein, equal concentration mImpα1ΔIBB; 50 mM Tris-d11 pH 7.6, 150 mM KCl; 25°C
Procedure: For the mImpα1ΔIBB binding experiments, the samples contained 0.13 mM U-[^2H,^15N]pol β and 0.13 mM mImpα1ΔIBB in a buffer consisting of 50 mM Tris-d11 (pH 7.6), 150 mM KCl, 1 mM CDTA, 1 mM dithiothreitol (DTT), 0.1 mM AEBSF, 0.04% NaN3 and 50 μM DSS as an internal chemical shift standard, with 10% D2O for ^1H-^15N HSQC experiments and 100% D2O for ^1H-^13C HSQC experiments. For studies of the effects of the R4S,K5S mutation on pol β structure and function, the [methyl-^13C]methionine-labeled pol β samples contained 0.1 mM pol β or the NLS-variant in the above 100% D2O buffer along with 0.11 mM of a 1-nucleotide gapped double-hairpin DNA substrate and 0.14 mM of the non-hydrolyzable nucleoside triphosphate substrate dAPCPP. Nuclear magnetic resonance (NMR) experiments were performed at 25°C on a Varian UNITY INOVA 600 or 800 MHz NMR spectrometer, using a 5 mm Varian ^1H{^13C,^15N} triple-resonance room-temperature or Cold Probe, equipped with actively shielded Z-gradients. The ^1H-^13C HSQC spectra were acquired using Varian's gChsqc sequence. The spectra were processed using NMRPipe version 2.1 ([64]) and analyzed using NMRView version 5.0.4 ([65]). All spectra were processed using squared cosine bell apodization functions in all dimensions and forward-backward linear prediction in the indirect dimension ([66]).
Figure 1. […]

hImpα5ΔIBB [3] = target: T1, hImpα5ΔIBB (Homo sapiens, UniProt P52294); test: Analytical gel filtration of lyase domain / hImpα5ΔIBB mixtures; type: binding; settings: 2-fold excess lyase domain, Superdex 200 10/300 GL, 1 ml/min, 20 mM HEPES, 125 mM NaCl, 5 mM DTT, 1 mM EDTA, pH 7.4
T1 construct: human Importin α5, corresponding to residues 66–512, (hImpα5ΔIBB); His (C)
T1 sequence (P52294 66-512, stated change not applied): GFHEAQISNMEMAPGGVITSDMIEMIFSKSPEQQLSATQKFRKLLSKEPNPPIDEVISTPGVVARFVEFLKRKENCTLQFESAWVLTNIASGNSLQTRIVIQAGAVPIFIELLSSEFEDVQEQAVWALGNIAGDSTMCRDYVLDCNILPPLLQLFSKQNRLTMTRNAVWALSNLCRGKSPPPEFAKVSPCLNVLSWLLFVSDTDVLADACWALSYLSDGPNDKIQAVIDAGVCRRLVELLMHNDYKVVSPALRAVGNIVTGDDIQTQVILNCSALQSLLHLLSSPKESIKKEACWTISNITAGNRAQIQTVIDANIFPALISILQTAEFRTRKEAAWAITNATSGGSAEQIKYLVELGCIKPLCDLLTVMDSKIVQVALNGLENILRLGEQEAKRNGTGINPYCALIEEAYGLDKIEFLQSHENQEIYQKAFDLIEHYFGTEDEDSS
Procedure: as §1
Supplementary Figure S4. Interaction of the pol β lyase domain with Impα5. Analytical gel filtration experiments performed on mixtures of hImpa5DIBB and either wild-type or pol b(R4S,K5S) lyase domain.
For these experiments, hImpa5DIBB was mixed with 2-fold excess of wild-type or the NLS variant pol b(R4S,K5S) lyase domain and the samples were eluted at a flow rate of 1 ml/min on a Superdex 200 10/300 GL column (GE Healthcare) with a buffer containing 20 mM HEPES, 125 mM NaCl, 5mM DTT, […]
than Impa5DIBB alone; C) a mixture of Impa5DIBB with pol b(R4S,K5S) lyase domain elutes as two […]

hImpα5ΔIBB [4] = target: T1, hImpα5ΔIBB; test: Ligand displacement (competition) of FITC-labeled NLS peptide by lyase domain; type: binding; settings: relative to value with mImpα1ΔIBB
Procedure: His-tagged mImpα1 with the Importin β binding domain (IBB) deleted (mImpα1ΔIBB) and its major pocket variant (mImpα1ΔIBB[W184R/W231R]) were prepared as described previously ([56]). The minor binding pocket double mutant (mImpα1ΔIBB[W357R/W399R]) was created using the QuikChange kit (Agilent). C-terminal His-tagged human Importin α5, corresponding to residues 66–512, (hImpα5ΔIBB) was purchased from Genscript and cloned into the pET30 expression vector. All clones were sequence verified. mImpα1ΔIBB[W357R/W399R] and hImpα5ΔIBB were expressed and purified by the IMAC and gel filtration protocol previously described ([56]). Protein concentrations were determined by the Edelhoch procedure ([63]).
(§2) Apparent peptide dissociation constants were determined based on fluorescence polarization measurements using the fluorescein-labeled pol β NLS peptide as previously described ([56]). The binding constants for the interaction of pol β lyase domain with the Importin α constructs were determined by displacement of the FITC-labeled NLS peptide using a competition assay as previously described ([56]).
Figure 3. Binding of the pol β lyase domain to mImpα1ΔIBB and hImpα5ΔIBB. […] The initial fluorescence polarization value corresponds to the fraction of NLS peptide complexed with Impα, so that 100 would correspond to a fully complexed peptide. […]

mImpα1ΔIBB [5] = target: T2, mImpα1ΔIBB (Mus musculus, UniProt P52293); test: Fluorescence polarization, direct binding of FITC-labeled pol β NLS peptide; set-up: species or system murine; settings: abstract, peptide corresponding to pol β residues 2–13
T2 construct: His; made in house
From the text: The fluorescein-labeled pol β NLS peptide: S^3[…]^14-Lys(FITC), used for fluorescence polarization assays, was obtained from Genscript at a purity level of > 90%. Methyl methanesulfonate (MMS) was from Sigma-Aldrich. Following a strategy used previously ([61]), we studied a pol β complex with a double-hairpin that forms a one-nucleotide gapped DNA substrate with the following sequence: 5΄-^[…]-3΄ (underlined nucleotide is in the gap). The oligonucleotide was from Oligos Etc., Wilsonville, OR, USA. The non-hydrolyzable deoxynucleoside triphosphate 2΄-deoxyadenosine-5΄-[(α,β)-methyleno]triphosphate (dAPCPP) was obtained from Jena Bioscience.
His-tagged mImpα1 with the Importin β binding domain (IBB) deleted (mImpα1ΔIBB) and its major pocket variant (mImpα1ΔIBB[W184R/W231R]) were prepared as described previously ([56]). […] Protein concentrations were determined by the Edelhoch procedure ([63]).
as §2

| complex formation by gel filtration (mImpα1ΔIBB [1]; listed as pol b lyase domain) | effect of mImpα1ΔIBB on 1H-15N HSQC resonances (mImpα1ΔIBB [2]) | complex formation by analytical gel filtration (hImpα5ΔIBB [3]; listed as wild-type lyase domain) | increase in affinity, hImpα5ΔIBB vs mImpα1ΔIBB (hImpα5ΔIBB [4]) [fold] | Compound | complex formation by gel filtration (mImpα1ΔIBB [1]) | complex formation by analytical gel filtration (hImpα5ΔIBB [3]; listed as pol b lyase domain) | Kd (in words) (mImpα1ΔIBB [5]) |
| --- | --- | --- | --- | --- | --- | --- | --- |
| the complex elutes in fractions 28-32 | broadened lyase domain amide resonances | does elute as a complex | 8 | Pol β lyase domain: N-terminal lyase domain of pol β (residues 2–87) | indicated an interaction between the two proteins | a complex of Impa5DIBB with pol b lyase domain elutes earlier | – |
| – | – | – | – | CC(C)C[C@H](NC(=O)[C@@H](NC(=O)[C@H](CCC(=O)O)NC(=O)[C@H](CCC(N)=O)NC(=O)[C@@H]1CCCN1C(=O)[C@H](C)NC(=O)[C@H](CCCCN)NC(=O)[C@H](CCCNC(=N)N)NC(=O)[C@H](CCCCN)NC(=O)[C@@H](N)CO)[C@@H](C)O)C(=O)N[C@@H](CC(N)=O)C(=O)NCC(=O)NCC(=O)N[C@@H](CCCCNC(=S)Nc1ccc2c(c1)C(=O)OC21c2ccc(O)cc2Oc2cc(O)ccc21)C(=O)O (H-SKRKAPQETLNGGK(FITC)-OH) | – | – | low micromolar Kd |
